These results are taken from patent US20260234144A1 (TAY THERAPEUTICS LIMITED, priority 2023, published 2026).

For the assay, the system named is R223X stop codon in the mutated luciferase gene, ADXC8 luciferase reporter cell line. Briefly: cells. Type of assay: cell-based. Conditions: 24 h, ADXC8 cells, 24 hours; for Emax: read-out: Fold Over Control, maximum fold response relative to 200 μM G418; for EC (100% of 200 uM G418 response): read-out: pC100%, negative logarithm of the concentration giving the same response as 200 μM G418.

The structures appear in SMILES notation.

`Cc1cc(C)c2c(N)nc(NC3CCN(Cc4ccc(C#N)cc4Br)CC3)nc2n1` [Example 561]: the Emax was 100 to 3000% and the EC (100% of 200 uM G418 response) is 1 to 10 µM.

For `CNc1nc(N[C@H]2CN(C)C[C@@H]2O)nc2nc(C)c(Br)c(C)c12` [Example 615], the EC (100% of 200 uM G418 response) was 1 to 10 µM.

Regarding `CNc1nc(N[C@H]2CN[C@H](C)C2)nc2nc(C)cc(C)c12` [Example 376], the EC (100% of 200 uM G418 response) was 0.1 to 1 µM.

In the case of `Cc1cc(C)c2c(N)nc(NC3CCN(Cc4cccc5cn[nH]c45)CC3)nc2n1` [Example 659], the Emax fell in the range of 100 to 3000% and the EC (100% of 200 uM G418 response) was 0.1 to 1 µM.

With `Cc1cc(C)c2c(N)nc(N[C@H]3CCCCNC3)nc2n1` [Example 312], the Emax is 100 to 3000% and the EC (100% of 200 uM G418 response) was in the range of 10 to 100 µM.

Regarding `CN1CCC(Nc2nc(N)c3ccc(-c4ccccc4CO)nc3n2)CC1` [Example 89], the EC (100% of 200 uM G418 response) lay in the range of 10 to 100 µM.

As to `CNc1nc(NC2C3CCC2CN(C)C3)nc2nc(C)cc(C)c12` (single isomer, unassigned) [Example 433], the Emax fell in the range of 100 to 3000% and the EC (100% of 200 uM G418 response) lay within 1 to 10 µM.

In the case of `Cc1cc(C)c2c(N)nc(NC3CCN(Cc4ccccc4C)CC3)nc2n1` [Example 550], the Emax fell in the range of 100 to 3000% and the EC (100% of 200 uM G418 response) lay within 1 to 10 µM.

Regarding `Cc1nc2nc(NC3CCN(Cc4ccc(C#N)cc4O)CC3)nc(N)c2c2c1CCC2` [Example 534], the Emax fell in the range of 100 to 3000% and the EC (100% of 200 uM G418 response) was 0.1 to 1 µM.

`CNCc1ccc(-c2ccc3c(N)nc(NC4CCN(C)CC4)nc3n2)cc1` [Example 56]: the Emax was 100 to 3000% and the EC (100% of 200 uM G418 response) lay in the range of 10 to 100 µM.

In the case of `CNc1nc(N[C@H]2CNC[C@@H]2F)nc2nc3c(c(C)c12)CCC3` [Example 342], the Emax was in the range of 100 to 3000% and the EC (100% of 200 uM G418 response) lay within 0.1 to 1 µM.

Regarding `Cc1cc(C)c2c(N)nc(N[C@@H]3CNC[C@H]3F)nc2n1` [Example 297], the Emax is 100 to 3000% and the EC (100% of 200 uM G418 response) lay within 10 to 100 µM.

In the case of `CN1CCC(Nc2nc(N)c3ccc(CO)nc3n2)CC1` [Example 299], the Emax was 0 to 100% and the EC (100% of 200 uM G418 response) is > 100 µM.

With `CN1CCC(Nc2nc(N)c3ccc(Cl)nc3n2)CC1` [Example 23, 7-chloro-N^2-(1-methylpiperidin-4-yl)pyrido[2,3-d]pyrimidine-2,4-diamine], the Emax lay in the range of 100 to 3000% and the EC (100% of 200 uM G418 response) was in the range of 10 to 100 µM.

Regarding `CNc1nc(N[C@H]2CNC[C@@H]2OC)nc2nc3c(c(C)c12)CCC3` [Example 623], the EC (100% of 200 uM G418 response) lay within 0.1 to 1 µM.

In the case of `CCCN1CCC(Nc2nc(N)c3c(C)cc(C)nc3n2)CC1` [Example 221], the EC (100% of 200 uM G418 response) was in the range of 1 to 10 µM.

`CCNc1nc(N[C@]23C[C@H]2CN(C)C3)nc2nc(C)cc(C)c12` [Example 632]: the Emax lay within 100 to 3000% and the EC (100% of 200 uM G418 response) lay in the range of 0.1 to 1 µM.

For the compound `COc1ccc(CNc2ccnc3nc(NC4CCN(C)CC4)nc(N)c23)cc1` [Example 298], the Emax lay within 0 to 100% and the EC (100% of 200 uM G418 response) is > 100 µM.

For `Cc1nc2nc(NC3CCN(C)CC3)nc(N)c2c2c1CCC2` [Example 11, 6-methyl-N^3-(1-methylpiperidin-4-yl)-8,9-dihydro-7H-cyclopenta[4,5]pyrido[2,3-d]pyrimidine-1,3-diamine], the Emax was 100 to 3000% and the EC (100% of 200 uM G418 response) fell in the range of 0.1 to 1 µM.

As for `Cc1cc(C)c2c(N)nc(NCCCN3CC4(CCOC4)C3)nc2n1` [Example 187], the Emax is 100 to 3000% and the EC (100% of 200 uM G418 response) was in the range of 10 to 100 µM.

`Cc1c2ccccc2nc2nc(NC3CCN(C)CC3)nc(N)c12` [Example 10, 5-methyl-N^2-(1-methylpiperidin-4-yl)pyrimido[4,5-b]quinoline-2,4-diamine]: the Emax was in the range of 100 to 3000% and the EC (100% of 200 uM G418 response) was in the range of 1 to 10 µM.

As to `CC(=O)c1ccnc2nc(NC3CCN(C)CC3)nc(N)c12` [Example 309], the Emax lay within 0 to 100% and the EC (100% of 200 uM G418 response) was > 100 µM.

As to `CNc1nc(N[C@H]2CNC[C@H]2F)nc2nc(C)c3c(c12)CCC3` [Example 347], the EC (100% of 200 uM G418 response) was 0.1 to 1 µM.

`Cc1cc(C)c2c(NC3CC3)nc(NC3CCN(C)CC3)nc2n1` [Example 320]: the Emax was 100 to 3000% and the EC (100% of 200 uM G418 response) was 1 to 10 µM.

Turning to `Cc1cc(C)c2c(N)nc(NC3CCN(Cc4ccccc4C(F)F)CC3)nc2n1` [Example 493], the Emax is 100 to 3000% and the EC (100% of 200 uM G418 response) was in the range of 1 to 10 µM.

As for `Cc1nc2nc(NC3CCN(C)CC3)nc(N)c2c(C)c1Br` [Example 22, 6-bromo-5,7-dimethyl-N^2-(1-methylpiperidin-4-yl)pyrido[2,3-d]pyrimidine-2,4-diamine], the Emax was in the range of 100 to 3000% and the EC (100% of 200 uM G418 response) fell in the range of 1 to 10 µM.

In the case of `Cc1cccc(-c2ccc3c(N)nc(NC4CCN(C)CC4)nc3n2)c1` [Example 49, N^2-(1-methylpiperidin-4-yl)-7-(m-tolyl)pyrido[2,3-d]pyrimidine-2,4-diamine], the EC (100% of 200 uM G418 response) was in the range of 1 to 10 µM.

As for `Cc1cc(C)c2c(N)cc(NCCCCN(C)C)nc2n1` [Example 254, N^2-(4-(dimethylamino)butyl)-5,7-dimethyl-1,8-naphthyridine-2,4-diamine], the Emax was 100 to 3000% and the EC (100% of 200 uM G418 response) fell in the range of 10 to 100 µM.

For the compound `Cc1cc(C)c2c(N)nc(NC3CCN(Cc4ccccc4F)CC3)nc2n1` [Example 465], the Emax was 100 to 3000% and the EC (100% of 200 uM G418 response) lay within 1 to 10 µM.

With `Cc1cc(C)c2c(N)nc(NC3CCC(N(C)C)CC3)nc2n1` (stereo not drawn) [Example 204], the Emax is 100 to 3000% and the EC (100% of 200 uM G418 response) lay in the range of 1 to 10 µM.

As for `CN1CCC(Nc2nc(N)c3ccc(-c4cccc(O)c4)nc3n2)CC1` [Example 104], the EC (100% of 200 uM G418 response) is 10 to 100 µM.

For the compound `CNc1nc(N[C@H]2CNC[C@H]2O)nc2nc(C)cc(C)c12` [Example 326], the Emax fell in the range of 0 to 100% and the EC (100% of 200 uM G418 response) was > 31.6 µM.

`CN1CCC(Nc2nc(N)c3ccc(-c4cccc(N)c4)nc3n2)CC1` [Example 93]: the Emax fell in the range of 100 to 3000% and the EC (100% of 200 uM G418 response) lay in the range of 10 to 100 µM.

Regarding `CNc1nc(N[C@H]2CNC[C@@H]2C)nc2nc(C)cc(C)c12` [Example 382], the Emax is 100 to 3000% and the EC (100% of 200 uM G418 response) lay in the range of 1 to 10 µM.

As to `Cc1cc(C)c2c(N)cc(N[C@@H]3CCNC3)nc2n1` [Example 255, (R)-5,7-dimethyl-N^2-(pyrrolidin-3-yl)-1,8-naphthyridine-2,4-diamine], the EC (100% of 200 uM G418 response) was in the range of 0.1 to 1 µM.

As to `COCc1ccccc1CN1CCC(Nc2nc(N)c3c(C)cc(C)nc3n2)CC1` [Example 455], the Emax lay within 100 to 3000% and the EC (100% of 200 uM G418 response) lay within 1 to 10 µM.

Regarding `CN1CCC(Nc2nc(N)c3ccc(-c4cccc(C(N)=O)c4)nc3n2)CC1` [Example 70], the Emax was 100 to 3000% and the EC (100% of 200 uM G418 response) fell in the range of 10 to 100 µM.

For `Cc1cc(C)c2c(NC3CCCC3)nc(N[C@@H]3CCNC3)nc2n1` [Example 324], the Emax lay in the range of 0 to 100% and the EC (100% of 200 uM G418 response) was > 31.6 µM.

As to `CNc1nc(NCC23CCCN2CCC3)nc2nc(C)cc(C)c12` [Example 600], the Emax lay within 0 to 100% and the EC (100% of 200 uM G418 response) is > 31.6 µM.

`Cc1nc2nc(NC3CCN(Cc4ccncc4O)CC3)nc(N)c2c2c1CCC2` [Example 530]: the Emax lay in the range of 100 to 3000% and the EC (100% of 200 uM G418 response) lay within 0.1 to 1 µM.

As for `Cc1cc(C)c2c(N(C)C3CC3)nc(NC3CCN(C)CC3)nc2n1` [Example 265], the Emax is 0 to 100% and the EC (100% of 200 uM G418 response) was > 100 µM.

Turning to `Cc1cc(C)c2c(N)nc(NC3CCN(Cc4c[nH]cn4)CC3)nc2n1` [Example 491], the Emax fell in the range of 100 to 3000% and the EC (100% of 200 uM G418 response) fell in the range of 10 to 100 µM.

With `CNc1nc(N[C@@H]2CCNC2)nc2nc3c(c(C)c12)CCC3` [Example 231, (R)—N^4,5-dimethyl-N^2-(pyrrolidin-3-yl)-7,8-dihydro-6H-cyclopenta[5,6]pyrido[2,3-d]pyrimidine-2,4-diamine], the Emax was 100 to 3000% and the EC (100% of 200 uM G418 response) lay within 0.1 to 1 µM.

As for `CN1CCC(Nc2nc(N)c3ccc(-c4cccc(CN)c4)nc3n2)CC1` [Example 74], the EC (100% of 200 uM G418 response) lay in the range of 1 to 10 µM.

Consider `Cc1cc(C)c2c(N)nc(NCCCN3CC4(COC4)C3)nc2n1` [Example 29, N^2-(3-(2-oxa-6-azaspiro[3.3]heptan-6-yl)propyl)-5,7-dimethylpyrido[2,3-d]pyrimidine-2,4-diamine], for which the Emax is 100 to 3000% and the EC (100% of 200 uM G418 response) lay in the range of 10 to 100 µM.

On to `Cc1cc(C)c2c(N)nc(NCCN3CC(C)OC(C)C3)nc2n1` (stereo not drawn) [Example 151], for which the Emax lay within 0 to 100% and the EC (100% of 200 uM G418 response) is > 31.6 µM.

On to `CNc1nc(N[C@H]2CNC[C@H]2O)nc2nc(C)c3c(c12)CCC3` [Example 345], for which the Emax was 100 to 3000% and the EC (100% of 200 uM G418 response) lay within 10 to 100 µM.

As for `CNc1nc(NC2CCN3CCCC23)nc2nc(C)cc(C)c12` (stereo not drawn) [Example 439], the Emax is 0 to 100% and the EC (100% of 200 uM G418 response) was > 31.6 µM.

Regarding `Cc1cc(C)c2c(N)nc(NC3CCN(Cc4ccccc4)CC3)nc2n1` [Example 158], the Emax was 100 to 3000% and the EC (100% of 200 uM G418 response) lay within 0.1 to 1 µM.

For `Cc1cc(C)c2c(N)nc(NCCCN3CCCCC3)nc2n1` [Example 7, 5,7-dimethyl-N^2-(3-(piperidin-1-yl)propyl)pyrido[2,3-d]pyrimidine-2,4-diamine], the Emax was in the range of 100 to 3000% and the EC (100% of 200 uM G418 response) was in the range of 1 to 10 µM.

As to `Cc1c2c(nc3nc(NC4CCN(Cc5ccccc5NS(C)(=O)=O)CC4)nc(N)c13)CCC2` [Example 671], the Emax lay in the range of 100 to 3000% and the EC (100% of 200 uM G418 response) lay in the range of 1 to 10 µM.

In the case of `Cc1cc(C)c2c(N)nc(NC3C[C@H]4CCC[C@@H](C3)N4C)nc2n1` (stereo partly drawn) [Example 211], the Emax is 100 to 3000% and the EC (100% of 200 uM G418 response) fell in the range of 1 to 10 µM.

For `Cc1cc(C)c2c(N3CCOCC3)nc(NC3CCN(C)CC3)nc2n1` [Example 266], the Emax lay in the range of 0 to 100% and the EC (100% of 200 uM G418 response) is > 100 µM.
